From patent US20240109887A1 (Viva Star Biosciences (Suzhou) Co., Ltd., priority 2021, published 2024) come the findings set out here.

Test [1] deals with T1, KRAS-WT/SOS1 (Homo sapiens, UniProt Q07889).
T1 sequence (Q07889 1-1333): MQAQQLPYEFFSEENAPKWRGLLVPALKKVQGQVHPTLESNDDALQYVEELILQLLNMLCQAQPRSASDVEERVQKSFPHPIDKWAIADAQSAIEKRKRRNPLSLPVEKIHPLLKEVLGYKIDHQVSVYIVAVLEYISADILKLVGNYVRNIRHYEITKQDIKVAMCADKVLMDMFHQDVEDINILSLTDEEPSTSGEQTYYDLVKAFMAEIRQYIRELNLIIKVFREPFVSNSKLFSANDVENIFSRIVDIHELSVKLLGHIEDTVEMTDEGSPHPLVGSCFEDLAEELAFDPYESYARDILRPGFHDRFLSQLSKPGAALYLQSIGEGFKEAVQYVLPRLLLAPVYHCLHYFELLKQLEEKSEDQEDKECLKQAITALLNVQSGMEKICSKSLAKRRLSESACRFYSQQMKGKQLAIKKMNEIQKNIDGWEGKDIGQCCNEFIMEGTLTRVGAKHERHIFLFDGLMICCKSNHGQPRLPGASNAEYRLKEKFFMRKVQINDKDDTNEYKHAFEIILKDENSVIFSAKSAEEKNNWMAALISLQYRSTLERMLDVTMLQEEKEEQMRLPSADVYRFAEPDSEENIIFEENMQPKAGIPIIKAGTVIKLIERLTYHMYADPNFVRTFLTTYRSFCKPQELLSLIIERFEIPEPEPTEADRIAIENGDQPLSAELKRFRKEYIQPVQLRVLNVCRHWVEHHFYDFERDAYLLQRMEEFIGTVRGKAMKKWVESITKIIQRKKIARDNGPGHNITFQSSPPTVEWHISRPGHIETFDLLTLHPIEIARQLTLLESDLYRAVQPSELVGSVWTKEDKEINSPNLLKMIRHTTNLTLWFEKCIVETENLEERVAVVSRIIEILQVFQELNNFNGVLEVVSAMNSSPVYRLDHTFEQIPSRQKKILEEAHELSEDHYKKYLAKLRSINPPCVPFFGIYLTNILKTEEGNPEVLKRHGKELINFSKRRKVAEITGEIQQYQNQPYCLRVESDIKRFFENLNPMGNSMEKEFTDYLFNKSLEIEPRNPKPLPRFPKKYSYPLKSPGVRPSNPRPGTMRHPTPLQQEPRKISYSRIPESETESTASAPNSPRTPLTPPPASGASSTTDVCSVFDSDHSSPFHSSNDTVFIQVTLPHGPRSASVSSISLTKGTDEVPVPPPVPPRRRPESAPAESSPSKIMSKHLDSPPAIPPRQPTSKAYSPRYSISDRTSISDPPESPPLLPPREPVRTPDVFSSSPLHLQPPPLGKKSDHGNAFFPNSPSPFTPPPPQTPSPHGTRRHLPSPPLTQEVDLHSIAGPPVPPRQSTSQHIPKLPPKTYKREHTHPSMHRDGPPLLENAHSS
The test can be described thus: biochemical.

Test [2] deals with T2, KRAS G12D/SOS1 (Homo sapiens, UniProt Q07889).
T2 sequence (Q07889 1-1333): T1 sequence (Q07889 1-1333)
The test is described as follows: biochemical.

SMILES strings stand for the structures. A value given as a limit tells only on which side of the number the result lay.

On to `C[C@@H](NC(=O)c1cn(C2(C)CC2)c(=O)c2c[nH]nc12)c1cccc2c1CCC2(F)F` [Example 4, (R)-N-(1-(1,1-difluoro-2,3-dihydro-1H-inden-4-yl)ethyl)-5-(1-methylcyclopropyl)-4-oxo-4,5-dihydro-2H-pyrazolo[4,3-c]pyridine-7-carboxamide], for which the IC50 in test [1] and in test [2] was less than 100 nM each time.

As for `C[C@@H](NC(=O)c1cn(C2(C)CC2)c(=O)c2c[nH]nc12)c1cccc(C(F)(F)CO)c1` [Example 5, (R)-N-(1-(3-(1,1-difluoro-2-hydroxyethyl)phenyl)ethyl)-5-(1-methylcyclopropyl)-4-oxo-4,5-dihydro-2H-pyrazolo[4,3-c]pyridine-7-carboxamide], the IC50 in test [1] and in test [2] was less than 100 nM each time.

`Cc1c([C@@H](C)NC(=O)c2cn(C3(C)CC3)c(=O)c3cn[nH]c23)cccc1C(F)(F)F` [Example 6, (R)-N-(1-(2-methyl-3-(trifluoromethyl)phenyl)ethyl)-5-(1-methylcyclopropyl)-4-oxo-4,5-dihydro-1H-pyrazolo[4,3-c]pyridine-7-carboxamide]: the figures for the IC50 in test [1] and in test [2] were less than 100 nM and 100 to 500 nM, respectively.

Consider `C[C@@H](NC(=O)c1cn(C2(C)CC2)c(=O)c2cn[nH]c12)c1cccc(C(C)(F)F)c1F` [Example 7, (R)-N-(1-(3-(1,1-difluoroethyl)-2-fluorophenyl)ethyl)-5-(1-methylcyclopropyl)-4-oxo-4,5-dihydro-1H-pyrazolo[4,3-c]pyridine-7-carboxamide], for which the IC50 (as a rule, the concentration that inhibits the measured activity by half) in test [1] is less than 100 nM; in test [2] it was 100 to 500 nM.

With `CNCc1ccccc1-c1ccc([C@@H](C)NC(=O)c2cn(C3(C)CC3)c(=O)c3cn[nH]c23)s1` [Example 9, (R)-N-(1-(5-(2-((methylamino)methyl)phenyl)thiophen-2-yl)ethyl)-5-(1-methylcyclopropyl)-4-oxo-4,5-dihydro-1H-pyrazolo[4,3-c]pyridine-7-carboxamide], the IC50 in test [1] and in test [2] was less than 100 nM each time.

Regarding `CC(=O)N1CCC(n2cc(C(=O)N[C@H](C)c3cccc4c3CCC4(F)F)c3n[nH]cc3c2=O)CC1` [Example 10, (R)-5-(1-acetylpiperidin-4-yl)-N-(1-(1,1-difluoro-2,3-dihydro-1H-inden-4-yl)ethyl)-4-oxo-4,5-dihydro-2H-pyrazolo[4,3-c]pyridine-7-carboxamide], the concentration for half-maximal inhibition (IC50) in test [1] and in test [2] was less than 100 nM each time.

On to `C[C@@H](NC(=O)c1cn(C2CC(F)(F)C2)c(=O)c2cn[nH]c12)c1cccc2c1CCC2(F)F` [Example 13, (R)—N-(1-(1,1-difluoro-2,3-dihydro-1H-inden-4-yl)ethyl)-5-(3,3-difluorocyclobutyl)-4-oxo-4,5-dihydro-1H-pyrazolo[4,3-c]pyridine-7-carboxamide], for which the concentration for half-maximal inhibition (IC50) in test [1] and in test [2] was less than 100 nM each time.

In the case of `C[C@@H](NC(=O)c1cn(C2CC(F)(F)C2)c(=O)c2cn[nH]c12)c1cccc(C(F)(F)F)c1` [Example 14, (R)-5-(3,3-difluorocyclobutyl)-4-oxo-N-(1-(3-(trifluoromethyl)phenyl)ethyl)-4,5-dihydro-1H-pyrazolo[4,3-c]pyridine-7-carboxamide], the IC50 in test [1] and in test [2] was 100 to 500 nM throughout.

In the case of `CNCc1ccccc1-c1csc([C@@H](C)NC(=O)c2cn(C3CC(F)(F)C3)c(=O)c3cn[nH]c23)c1` [Example 15, 5-(3,3-difluorocyclobutyl)-N-[(1R)-1-(4-{2-[(methylamino)methyl]phenyl}thiophen-2-yl)ethyl]-4-oxo-1H,4H,5H-pyrazolo[4,3-c]pyridine-7-carboxamide], the IC50 in test [1] and in test [2] was less than 100 nM each time.

With `COc1c(N2CCOCC2)cc(C(=O)N[C@H](C)c2cccc3c2CCC3(F)F)c2n[nH]cc12` [Example 18, N-[(1R)-1-(1,1-difluoro-2,3-dihydro-1H-inden-4-yl)ethyl]-4-methoxy-5-(morpholin-4-yl)-2H-indazole-7-carboxamide], the IC50 in test [1] and in test [2] was less than 100 nM in each case.

Regarding `COc1c(CN(C)C)cc(C(=O)N[C@H](C)c2cccc3c2CCC3(F)F)c2n[nH]cc12` [Example 19, N-[(1R)-1-(1,1-difluoro-2,3-dihydro-1H-inden-4-yl)ethyl]-5-[(dimethylamino)methyl]-4-methoxy-2H-indazole-7-carboxamide], the IC50 in test [1] and in test [2] was 100 to 500 nM throughout.

`COc1c(CN(C)C)cc(C(=O)N[C@H](C)c2cccc(C(F)(F)CO)c2)c2n[nH]cc12` [Example 20, N-[(1R)-1-[3-(1,1-difluoro-2-hydroxyethyl)phenyl]ethyl]-5-[(dimethylamino)methyl]-4-methoxy-2H-indazole-7-carboxamide]: the IC50 in test [1] and in test [2] was 100 to 500 nM each time.

With `Cc1c[nH]c2c(C(=O)N[C@H](C)c3cccc4c3CCC4(F)F)cn(C3(C)CC3)c(=O)c12` [Example 21, (R)—N-(1-(1,1-difluoro-2,3-dihydro-1H-inden-4-yl)ethyl)-3-methyl-5-(1-methylcyclopropyl)-4-oxo-4,5-dihydro-1H-pyrrolo[3,2-c]pyridine-7-carboxamide], the IC50 in test [1] is less than 100 nM; in test [2], 100 to 500 nM.

For `COc1c(-c2cnc[nH]2)cc(C(=O)N[C@H](C)c2cccc3c2CCC3(F)F)c2n[nH]cc12` [Example 22, N-[(1R)-1-(1,1-difluoro-2,3-dihydro-1H-inden-4-yl)ethyl]-5-(1H-imidazol-5-yl)-4-methoxy-2H-indazole-7-carboxamide], the IC50 in test [1] and in test [2] was 100 to 500 nM in each case.

On to `COc1c(-c2cnc[nH]2)cc(C(=O)N[C@H](C)c2cccc(C(F)(F)CO)c2)c2n[nH]cc12` [Example 23, N-[(1R)-1-[3-(1,1-difluoro-2-hydroxyethyl)phenyl]ethyl]-5-(1H-imidazol-5-yl)-4-methoxy-2H-indazole-7-carboxamide], for which the IC50 in test [1] and in test [2] was 100 to 500 nM in each case.

As for `COc1c(C(C)N)cc(C(=O)N[C@H](C)c2cccc3c2CCC3(F)F)c2n[nH]cc12` (stereo partly drawn) [Example 24, 5-(1-aminoethyl)-N—((R)-1-(1,1-difluoro-2,3-dihydro-1H-inden-4-yl)ethyl)-4-methoxy-2H-indazole-7-carboxamide], the concentration for half-maximal inhibition (IC50) in test [1] and in test [2] was 100 to 500 nM each time.

`COc1c(O[C@H]2CCOC2)cc(C(=O)N[C@H](C)c2cccc(C(F)(F)F)c2)c2n[nH]cc12` [Example 27, 4-methoxy-5-(((S)-tetrahydrofuran-3-yl)oxy)-N—((R)-1-(3-(trifluoromethyl)phenyl)ethyl)-2H-indazole-7-carboxamide]: the 50% inhibitory concentration (IC50) in test [1] and in test [2] was 100 to 500 nM each time.

For the compound `COc1c(O[C@H]2CCOC2)cc(C(=O)N[C@H](C)c2cc(N)cc(C(F)(F)F)c2)c2n[nH]cc12` [Example 28, N-((R)-1-(3-amino-5-(trifluoromethyl)phenyl)ethyl)-4-methoxy-5-(((S)-tetrahydrofuran-3-yl)oxy)-2H-indazole-7-carboxamide], the IC50 in test [1] and in test [2] was 100 to 500 nM each time.

Consider `COc1c(O[C@H]2CCOC2)cc(C(=O)N[C@H](C)c2cccc3c2CCC3(F)F)c2n[nH]cc12` [Example 29, N-((R)-1-(1,1-difluoro-2,3-dihydro-1H-inden-4-yl)ethyl)-4-methoxy-5-(((S)-tetrahydrofuran-3-yl)oxy)-2H-indazole-7-carboxamide], for which the figures for the IC50 in test [1] and in test [2] were less than 100 nM and 100 to 500 nM, respectively.

`COc1c(O[C@H]2CCOC2)cc(C(=O)N[C@H](C)c2cccc(C(F)(F)CO)c2)c2n[nH]cc12` [Example 30, N-((R)-1-(3-(1,1-difluoro-2-hydroxyethyl)phenyl)ethyl)-4-methoxy-5-(((S)-tetrahydrofuran-3-yl)oxy)-2H-indazole-7-carboxamide]: the IC50 in test [1] and in test [2] was 100 to 500 nM each time.

Take `COc1c(N2CCN(C)CC2)cc(C(=O)N[C@H](C)c2cccc(C(F)(F)CO)c2)c2[nH]ncc12` [Example 32, N-[(1R)-1-[3-(1,1-difluoro-2-hydroxyethyl)phenyl]ethyl]-4-methoxy-5-(4-methylpiperazin-1-yl)-1H-indazole-7-carboxamide]: the IC50 in test [1] and in test [2] was less than 100 nM in each case.
